According to patent publication US20050232902A1, “Injectable bioartificial tissue matrix” (priority 2004, published 2005):

Experiments:
[1] = system: injured myocardium; assay: Transplantation of hES-derived cardiomyocytes pretreated with ascorbic acid into LAD-ligated heart, graft/infarct ratio; type: in vivo, Mice
Excerpt: The ascorbic acid-treated cells can become large conglomerates of cells in the injected tissue and thereby can restore major portions of a damaged heart muscle when compared with tissue injected with untreated cells. The proportion of host tissue target organ restored by the grafted cultured cells can be evaluated by a measure termed the “graft/infarct ratio”. The graft/infarct ratio is the ratio of the portion of the ‘dead tissue’ area of the target organ that is restored and/or replaced by transplanted cells of bioartificial tissue. The ratio is determined by dividing a measured area of the restored and/or replaced area by the total measured area of ‘dead tissue’. In addition, a measure or growth and/or of viability can be determined by other methods known in the art. Such methods include, staining of tissue slices with trypan blue to determine extent of dye exclusion, determining nucleic acid uptake of tritiated thymidine into proliferating cells, and staining of tissue slices with toluidin blue to determine extent of dye uptake.
Human ES (hES) cell lines, H1 and H7 (Mummery et al., (2002) supra; Hescheler, B. K. et al. (1997) Cardiovasc. Res. 36:149-162) were initially maintained on feeders in ES medium containing 80% knockout Dulbecco's modified Eagle's medium (KO-DMEM) (Invitrogen, Carlsbad Calif.), 1 mM L-glutamine, 0.1 mM β-mercaptoethanol, 1% nonessential amino acids stock (Invitrogen), 20% Serum Replacement (Invitrogen, Carlsbad Calif.) and 4 ng/ml hbFGF (Invitrogen). The cells were later maintained using feeder-free conditions, herein described. Briefly, feeder-free cultures were passaged by incubation in 200 units/ml collagenase IV for 5-10 minutes at 37° C., dissociated and then seeded onto MATRIGEL-coated plates and maintained in conditioned medium (CM) prepared from primary mouse embryonic fibroblast cultures.
Confluent H7 hES cell cultures were incubated with 0.5 mM EDTA in phosphate-buffered saline (PBS) at 37° C. for 8 min, dissociated, resuspended in CM and replated onto MATRIGEL-coated plates at ˜1×10^6 cells/cm^2. […]

[2] = system: transplant cell viability and colonization; assay: Adjuvants compared with ascorbic acid in transplantable cell cultures (Example VI); type: in vivo; conditions: treatment of cells prior to transplantation into a target organ
Excerpt: In separate experiments, treatment with other adjuvants or treatments were compared with treatment with ascorbic acid. [formula]

[3] = system: chondrocytes; conditions: cited from earlier work

Which “Increase of graft/infarct ratio compared with untreated cells” value ([1]; 24 hours (treated) vs six hours (untreated, R=0.09:1.0) after transplantation) does the source give for `O=C1O[C@H]([C@@H](O)CO)C(O)=C1O` [ascorbic acid] here?
Its value is 4.6 fold.

What about the “Effects on colonization and viability of pretreated cells at subsequent time points” value ([1]; 7 days, 14 days, and 28 days following transplantation) of the same molecule?
The value was “sustained”.

And the “Area of the tissue populated by transplanted cells” value ([1]; cells pretreated 24 hrs with 1 mM ascorbic acid, 24 hours following transplantation, total damaged area 536,594 μm^2, FIG. 5)?
The value was 215,525 μm^2.

And the “Increase in transplant cell viability and colonization” value [2]?
The value was “at least 47 fold”.

What about the “Viable cells in the gelled culture” value ([3]; 2×10^5 cells starting number, 50 μg/ml ascorbic acid, three weeks in vitro) of the same molecule?
The value was “approximately 12×10^5 cells”.

And the “Increase in cell viability” value ([3]; chondrocytes incubated three weeks in vitro vs absence of ascorbic acid)?
The value was “approximately ten-fold”.

What about the “Viable cells after three weeks incubation” value ([3]; starting number 2×10^6 cells) of the same molecule?
Its value is 2.6×10^6 cells.
